The results in this text go back to PubChem BioAssay AID248 (DTP/NCI, 2004).

SMILES strings stand for the structures. Several values for one entry are separate records, joined by “and”; a condition that tells them apart may be missing. Identical values can stand only once. Inconclusive results and toxic doses are left out.

The subject of this experiment is L1210 leukemia ip in BDF1 mice, survival T/C. Briefly: NCI In Vivo Anticancer Drug Screen. Data for tumor model L1210 Leukemia (intraperitoneal) in B6D2F1 (BDF1) mice. The following applies: endpoint: mean survival time, higher = longer survival. Summed up:
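In this screen, tumor-bearing mice given compound are compared to those given vehicle, and their survival values are reported as a treated-to-control quotient.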

The mark [1] stands for this setting: dose: 100.0 mg/kg/injection, schedule: Q04DX003 (ip), vehicle: Klucel (hydroxypropylcellulose) (HPC).
Setting [2] is: dose: 400.0 mg/kg/injection, schedule: Q04DX003 (ip), vehicle: Klucel (hydroxypropylcellulose) (HPC).
The mark [3] stands for this setting: dose: 100.0 mg/kg/injection, schedule: Q01DX009 (ip), vehicle: saline.
Where [4] appears, read: dose: 400.0 mg/kg/injection, schedule: Q01DX009 (ip), vehicle: saline.
Setting [5] is: dose: 100.0 mg/kg/injection, schedule: Q01DX001 (ip), vehicle: saline.
[6] abbreviates: dose: 200.0 mg/kg/injection, schedule: Q01DX001 (ip), vehicle: saline.
The mark [7] stands for this setting: dose: 400.0 mg/kg/injection, schedule: Q01DX001 (ip), vehicle: saline.

Consider `CN=C(NC(C)C)c1ccc(NC(=O)c2ccc(C(=O)Nc3ccc(C(=NC)NC(C)C)cc3)cc2)cc1`, for which the T/C by setting is: (dose: 2.0 mg/kg/injection, schedule: Q01DX Z (ip), vehicle: carboxymethylcellulose (CMC)) 97 % of control; (dose: 4.0 mg/kg/injection, schedule: Q01DX Z (ip), vehicle: carboxymethylcellulose (CMC)) 101 % of control; (dose: 6.0 mg/kg/injection, schedule: Q01DX Z (ip), vehicle: carboxymethylcellulose (CMC)) 112 % of control; (dose: 16.0 mg/kg/injection, schedule: Q01DX Z (ip), vehicle: carboxymethylcellulose (CMC)) 151 % of control; (dose: 25.0 mg/kg/injection, schedule: Q01DX Z (oral), vehicle: carboxymethylcellulose (CMC)) 96 % of control; (dose: 31.0 mg/kg/injection, schedule: Q01DX Z (ip), vehicle: methylcellulose (MC)) 117 % of control. Besides, the T/C reads like this: (dose: 50.0 mg/kg/injection, schedule: Q01DX Z (oral), vehicle: carboxymethylcellulose (CMC)) 101 % of control; (dose: 62.5 mg/kg/injection, schedule: Q01DX Z (ip), vehicle: methylcellulose (MC)) 157 % of control; (dose: 100.0 mg/kg/injection, schedule: Q01DX Z (oral), vehicle: carboxymethylcellulose (CMC)) 96 % of control; (dose: 125.0 mg/kg/injection, schedule: Q01DX Z (ip), vehicle: methylcellulose (MC)) 157 % of control; (dose: 200.0 mg/kg/injection, schedule: Q01DX Z (oral), vehicle: carboxymethylcellulose (CMC)) 101 % of control; (dose: 250.0 mg/kg/injection, schedule: Q01DX Z (ip), vehicle: methylcellulose (MC)) 97 % of control.

Turning to `N#C/C(=C/c1ccnc2ccccc12)c1ccccc1`, the T/C reads like this: under setting [1], 101 % of control; (dose: 200.0 mg/kg/injection, schedule: Q04DX003 (ip), vehicle: Klucel (hydroxypropylcellulose) (HPC)) 101 % of control; under setting [2], 95 % of control.

Turning to `O=[N+]([O-])/C=C/c1cccc([N+](=O)[O-])c1`, the T/C was 103 % of control (dose: 25.0 mg/kg/injection, schedule: Q04DX003 (ip), vehicle: Klucel (hydroxypropylcellulose) (HPC)) and 103 % of control (dose: 50.0 mg/kg/injection, schedule: Q04DX003 (ip), vehicle: Klucel (hydroxypropylcellulose) (HPC)).

For `CCCCCCCCc1ccc(OC(C)OCCOCCOCC)cc1` (centres undefined), the T/C is 88 % of control (dose: 100.0 mg/kg/injection, schedule: Q04DX002 (ip), vehicle: saline); 88 % of control (dose: 200.0 mg/kg/injection, schedule: Q04DX002 (ip), vehicle: saline); 98 % of control (dose: 400.0 mg/kg/injection, schedule: Q04DX002 (ip), vehicle: saline).

For the compound `O=CN/N=C/c1ccc(Cl)c([N+](=O)[O-])c1`, the T/C by setting is: (dose: 75.0 mg/kg/injection, schedule: Q01DX001 (ip), vehicle: acetone) 93 % of control; (dose: 150.0 mg/kg/injection, schedule: Q01DX001 (ip), vehicle: acetone) 92 % of control; (dose: 300.0 mg/kg/injection, schedule: Q01DX001 (ip), vehicle: acetone) 92 % of control.

Take `COC1OC(CO)C(O)C(NC(=O)N(C)N=O)C1O` (centres undefined): the T/C reads like this: (dose: 12.5 mg/kg/injection, schedule: Q01DX009 (ip), vehicle: saline) 112 % of control; (dose: 25.0 mg/kg/injection, schedule: Q04DX003 (ip), vehicle: saline) 106 % of control; (dose: 44.0 mg/kg/injection, schedule: Q01DX009 (ip), vehicle: saline) 124 % of control; (dose: 50.0 mg/kg/injection, schedule: Q01DX009 (ip), vehicle: saline) 181 % of control; (dose: 50.0 mg/kg/injection, schedule: Q04DX003 (ip), vehicle: saline) 105 % of control; (dose: 66.0 mg/kg/injection, schedule: Q04DX003 (ip), vehicle: saline) 100 % of control. Further, the T/C reads like this: under setting [3], 103 % of control and 218 % of control; under setting [1], 119 % of control; (dose: 100.0 mg/kg/injection, schedule: Q04DX003 (ip), vehicle: saline) 158 % of control; (dose: 150.0 mg/kg/injection, schedule: Q04DX003 (ip), vehicle: saline) 105 % of control; (dose: 200.0 mg/kg/injection, schedule: Q04DX003 (ip), vehicle: saline) 166 % of control; under setting [4], 100 % of control. In addition, the T/C was 171 % of control under setting [2]; 100 % of control and 214 % of control (dose: 400.0 mg/kg/injection, schedule: Q04DX003 (ip), vehicle: saline).

Turning to `CC1(C)/C(=C\C(=O)O)C2CCC1C2` (centres undefined), the T/C is, setting by setting: under setting [5], 103 % of control; under setting [3], 91 % of control; (dose: 100.0 mg/kg/injection, schedule: Q04DX003 (ip), vehicle: acetone) 106 % of control; under setting [6], 97 % of control; (dose: 200.0 mg/kg/injection, schedule: Q01DX009 (ip), vehicle: saline) 90 % of control; (dose: 200.0 mg/kg/injection, schedule: Q04DX003 (ip), vehicle: acetone) 93 % of control. Also, the T/C was 105 % of control under setting [7]; 98 % of control under setting [4]; 89 % of control (dose: 400.0 mg/kg/injection, schedule: Q04DX003 (ip), vehicle: acetone).

In the case of `CC12CC3CC(C)(C1)CC(Br)(C3)C2`, the T/C is 104 % of control (dose: 50.0 mg/kg/injection, schedule: Q01DX001 (ip), vehicle: carboxymethylcellulose (CMC)); 101 % of control (dose: 100.0 mg/kg/injection, schedule: Q01DX001 (ip), vehicle: carboxymethylcellulose (CMC)); 113 % of control (dose: 200.0 mg/kg/injection, schedule: Q01DX001 (ip), vehicle: carboxymethylcellulose (CMC)); 107 % of control (dose: 400.0 mg/kg/injection, schedule: Q01DX001 (ip), vehicle: carboxymethylcellulose (CMC)).

For `Cc1cc2oc(/C=N/O)c(C)c2cc1C`, the T/C is, setting by setting: (dose: 100.0 mg/kg/injection, schedule: Q01DX009 (ip), vehicle: Klucel (hydroxypropylcellulose) (HPC)) 99 % of control; (dose: 200.0 mg/kg/injection, schedule: Q01DX009 (ip), vehicle: Klucel (hydroxypropylcellulose) (HPC)) 96 % of control; (dose: 400.0 mg/kg/injection, schedule: Q01DX009 (ip), vehicle: Klucel (hydroxypropylcellulose) (HPC)) 90 % of control.

`COc1cc(C(O)c2nccc3cc(OC)c(OC)cc23)c([N+](=O)[O-])cc1OC` (centres undefined): the T/C by setting is: (dose: 75.0 mg/kg/injection, schedule: Q01DX001 (ip), vehicle: saline) 111 % of control; (dose: 150.0 mg/kg/injection, schedule: Q01DX001 (ip), vehicle: saline) 106 % of control; (dose: 300.0 mg/kg/injection, schedule: Q01DX001 (ip), vehicle: saline) 101 % of control.

For the compound `CSCC1OC(n2nnc3c(N)ncnc32)C(O)C1O` (centres undefined), the T/C is 100 % of control (dose: 100.0 mg/kg/injection, schedule: Q01DX001 (ip), vehicle: Klucel (hydroxypropylcellulose) (HPC)) and 103 % of control (dose: 200.0 mg/kg/injection, schedule: Q01DX001 (ip), vehicle: Klucel (hydroxypropylcellulose) (HPC)).

As to `CCn1c(=O)sc2cc(Cl)ccc21`, the T/C by setting is: under setting [5], 102 % of control; under setting [6], 98 % of control; under setting [7], 108 % of control.

As for `CN(C(=O)/C=C\c1ccccc1)c1ccccc1`, the T/C is, setting by setting: (dose: 100.0 mg/kg/injection, schedule: Q04DX002 (ip), vehicle: Klucel (hydroxypropylcellulose) (HPC)) 104 % of control; (dose: 200.0 mg/kg/injection, schedule: Q04DX002 (ip), vehicle: Klucel (hydroxypropylcellulose) (HPC)) 104 % of control; (dose: 400.0 mg/kg/injection, schedule: Q04DX002 (ip), vehicle: Klucel (hydroxypropylcellulose) (HPC)) 104 % of control.
